Reference: patent US8597904B2, “Pharmaceutical compositions for the treatment of conditions responsive to proteasome inhibition” (priority 2007, dated 2013)
pIC50: −log10 of the molar value. Read-outs that look alike come from different tables or passages of the source.

Assays:
ubiquitinated proteins = test: immunoblot of total ubiquitinated proteins in SK-N-SH cells; assay type: cell-based, human; conditions: for increase of ubiquitinated proteins: 24 hours of treatment
Procedure: As inhibition of the proteasome is expected to result in increased levels of ubiquitinated proteins (Meng, et al. 1999. Proc. Natl. Acad. Sci. U.S.A. 96:10403-10408, which is incorporated herein by reference in its entirety), the effect of syringolin A on total ubiquitinated protein accumulation was analyzed by immunoblot analysis. To do so, SK-N-SH cells were seeded in 6-well cell culture plates at a concentration of 3.8×10^5 cells per ml (1.98 ml per well). After 24 hours, 20 μl of syringolin A (final concentration 25 μM) or cell culture medium (control, C) was added. For time-course experiments, cell treatments were staggered in order to process all samples at the same time after 24 hours. Cell lysates were prepared as previously reported (Wallick, et al. 2005. Oncogene 24:5606-5618, which is incorporated herein by reference in its entirety). Sodium dodecyl sulfate-polyacrylamide gel electrophoresis (SDS-PAGE), electro transfer to PVDF Immobilon-P membranes (Millipore) and antibody incubations were performed according to standard procedures. The primary antibodies used were rabbit whole serum ubiquitin (1:150) (U5379; Sigma), mouse monoclonal tumor suppressor protein p53 (1:250) (se-126; Santa Cruz Biotechnology), and rabbit monoclonal α-tubulin (1:1,500) (11H10; Cell Signaling Technology). Horse radish peroxidase (HRP)-conjugated anti-mouse or anti-rabbit antibodies (1:5,000) were used as secondary antibodies. Membranes were developed using the ECL Plus kit following the manufacturer's protocol (Amersham Biosciences) and exposed to Blue Lite Autorad Film (ISC BioExpress). Membranes were stripped with ECL stripping buffer (62.5 mM Tris-HCL, pH 6.7, 2% SDS, 100 mM β-mercaptoethanol) for 20 min at 55° C. and sequentially re-probed with the next antibody.
To further examine the inhibitory effect, whole cell lysates of GlbA-treated or untreated control cells were analyzed by Western blot and ubiquitinated proteins detected at endogenous levels.

[1] = biological target: T1, proteasome activity in SKOV3 ovarian cancer cells (Homo sapiens, UniProt P28074); test: Proteasome-Glo cell-based luminescent assay
T1 construct: in vivo proteasome activity in SK-N-SH neuroblastoma cells and SKOV3 human ovarian cancer cells; endogenous in cells; host or cells: SKOV3
T1 sequence (P28074 60-263): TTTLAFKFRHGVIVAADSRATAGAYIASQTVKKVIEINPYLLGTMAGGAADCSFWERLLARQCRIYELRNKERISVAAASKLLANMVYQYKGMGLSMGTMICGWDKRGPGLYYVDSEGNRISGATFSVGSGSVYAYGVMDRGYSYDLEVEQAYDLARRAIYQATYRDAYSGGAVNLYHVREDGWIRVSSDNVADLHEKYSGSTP
Procedure: Syringolin A was tested as a proteasome inhibitor in vivo in cultured mammalian cancer cells. Inhibition of proteasome activity in human SK-N-SH neuroblastoma cells was measured using the Proteasome-Glo™ cell-based luminescent assay (Promega) in solid white 96-well microtiter cell culture plates. Ten μl of syringolin A (at various concentrations) was added to each well containing SK-N-SH cells (plated at a concentration of 1.0×10^5 cells/ml in 90 μl well volumes 24 hours prior) and a negative control and media only control were included. Cells were incubated with 1-100 μM syringolin A for 2 hours or 24 hours, and then equilibrated to room temperature for 15 minutes before 100 μl of Proteasome-Glo reagent (containing bioluminescent substrate Suc-LLVY-aminoluciferin) was added to the cells. Luminescence (indicated as relative luminescence units [RLU]) was read after 15-30 minutes on a Dynex MLX Luminometer.
The cell culture-based proteasome inhibition assay was performed as previously described (Groll et al. 2008. Nature 452:755-758, which is incorporated herein by reference in its entirety). Briefly, wells of white-walled 96-well microtiter cell culture plates were seeded at a density of 1×10^4 cells/well (SK-N-SH) or 5×10^3 cells/well (SKOV3) in 90 μl. After 24 hours, 10 μl GlbA or SylA were added at increasing concentrations (0-100 μM) and incubated for 2 hours. […] Cell Death Differ 9:1017-1025; Meng, et al. 1999. PNAS 96:10403-10408, each of which is incorporated herein by reference in its entirety) were used as positive and negative controls, respectively. Microtiter plates were then equilibrated to room temperature for 15 min before adding 100 μl of proteasome Glo™ reagent (containing bioluminescent substrate Suc-LLVY-aminoluciferin) per well. Luminescence was measured on a Dynex MLX luminometer, according to the manufacturer's instructions (Promega).

CC(C)[C@H](NC(=O)N[C@H](C(=O)N[C@H]1/C=C/CCNC(=O)/C=C/[C@H](C(C)C)NC1=O)C(C)C)C(=O)O [syringolin A] was tested, and the “accumulation of ubiquitinated proteins” value (ubiquitinated proteins; 25 μM, time-course) was “time-dependent accumulation of ubiquitinated proteins”, the “increase of ubiquitinated proteins” value (ubiquitinated proteins) was 3 fold and the pIC50 [1] was 5.39. The “proteasome activity in cells” value ([1]; SKOV3, 2 hours incubation, listed as SylA) was “dose-dependent manner”.

With CCCCCCC/C=C/C=C/C(=O)N[C@H](C(=O)N[C@H]1C[C@@H](O)CCNC(=O)/C=C/[C@H](C)NC1=O)[C@@H](C)O [glidobactin A] the “increase of ubiquitinated proteins” value (ubiquitinated proteins) was 3 fold, the “lower concentration of GlbA inducing effects comparable to SylA” value (ubiquitinated proteins; ubiquitinated proteins) was 100 fold and the pIC50 ([1]; SKOV3, 2 hours, read-out: IC50 of proteasomal activity) was 6.60. For the same molecule, the “potency of GlbA relative to SylA” value ([1]; SKOV3, ratio of IC50) was “approximately 16 fold”.
